Test results as given in US9694016B2 (Novartis AG, priority 2013, dated 2017).
pIC50: −log10 of the molar value. Read-outs that look alike come from different tables or passages of the source.

Target: b-Raf (V600E) (Homo sapiens (Human), UniProt P15056, V600E)
Settings: read-out: b-Raf IC-50, AlphaScreen
[1] = 60 min pre-incubation, 3 hours reaction
[2] = 60 min pre-incubation, reaction 3 hours at room temperature

b-Raf (V600E), sequence (P15056 whole entry V600E): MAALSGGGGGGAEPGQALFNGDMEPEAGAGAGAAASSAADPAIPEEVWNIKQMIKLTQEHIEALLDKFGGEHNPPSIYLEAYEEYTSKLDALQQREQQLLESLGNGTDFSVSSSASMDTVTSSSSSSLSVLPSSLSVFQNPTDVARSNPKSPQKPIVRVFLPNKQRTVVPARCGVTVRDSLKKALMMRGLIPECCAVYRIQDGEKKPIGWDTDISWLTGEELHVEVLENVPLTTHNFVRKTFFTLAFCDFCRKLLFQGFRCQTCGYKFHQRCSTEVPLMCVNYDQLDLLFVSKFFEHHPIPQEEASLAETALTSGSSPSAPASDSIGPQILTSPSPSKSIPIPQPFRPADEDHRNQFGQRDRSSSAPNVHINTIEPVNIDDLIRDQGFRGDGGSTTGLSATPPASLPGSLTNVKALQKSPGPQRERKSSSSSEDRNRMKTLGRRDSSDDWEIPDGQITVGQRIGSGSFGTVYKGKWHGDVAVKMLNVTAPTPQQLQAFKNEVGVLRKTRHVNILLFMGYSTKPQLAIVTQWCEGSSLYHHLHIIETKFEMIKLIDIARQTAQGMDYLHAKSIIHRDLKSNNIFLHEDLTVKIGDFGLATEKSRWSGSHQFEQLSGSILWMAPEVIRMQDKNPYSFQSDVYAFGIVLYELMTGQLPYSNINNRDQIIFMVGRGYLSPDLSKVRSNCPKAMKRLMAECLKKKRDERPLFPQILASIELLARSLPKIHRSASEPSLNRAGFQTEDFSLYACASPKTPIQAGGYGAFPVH

pIC50 [1] | pIC50 [2] | Structure (SMILES) | also measured
8.12 |  | Cc1ncc(NC(=O)c2ccnc(C(C)(F)F)c2)cc1-c1cc(N2CCOCC2)n(C)c(=O)c1 [Example 510, 2-(1,1-difluoroethyl)-N-(1′,2-dimethyl-6′-morpholino-2′-oxo-1′,2′-dihydro-[3,4′-bipyridin]-5-yl)isonicotinamide] | 
8.11 |  | Cc1ncc(NC(=O)c2ccnc(C(F)F)c2)cc1-c1cc(N2CCOCC2)n(C)c(=O)c1 [Example 508, 2-(difluoromethyl)-N-(1′,2-dimethyl-6′-morpholino-2′-oxo-1′,2′-dihydro-[3,4′-bipyridin]-5-yl)isonicotinamide] | 
 | 8.70 | Cc1ccc(NC(=O)c2ccnc(C(C)(C)F)c2)cc1-c1cnc(OCCO)c(N2CCOCC2)c1 [Example 997, 2-(2-fluoropropan-2-yl)-N-(3-(6-(2-hydroxyethoxy)-5-morpholinopyridin-3-yl)-4-methylphenyl)isonicotinamide] | 
9.30 |  | COCCOc1nnc(-c2cc(NC(=O)c3cc(C(F)(F)F)ccn3)ccc2C)cc1N1CCOCC1 [Example 599, N-(3-(6-(2-methoxyethoxy)-5-morpholinopyridazin-3-yl)-4-methylphenyl)-4-(trifluoromethyl)picolinamide] | 
8.25 |  | Cc1ncc(NC(=O)c2ccnc(C(F)(F)F)c2)cc1-c1cc(N2CCOCC2)n(C)c(=O)c1 [Example 500] | 
 | 8.12 | Cc1ncc(NC(=O)c2ccnc(C(F)(F)F)c2)cc1-c1cc(N2CCOCC2)nc(N2CC(C)(O)C2)c1 [Example 1104, N-(2′-(3-hydroxy-3-methylazetidin-1-yl)-2-methyl-6′-morpholino-[3,4′-bipyridin]-5-yl)-2-(trifluoromethyl)isonicotinamide] | 
 | 8.33 | Cc1ncc(NC(=O)c2cccc(C(F)(F)F)c2)cc1-c1cc(N2CCNCC2)nc(N2CCOCC2)c1 [Example 1129, N-(2-methyl-2′-morpholino-6′-(piperazin-1-yl)-[3,4′-bipyridin]-5-yl)-3-(trifluoromethyl)benzamide] | 
 | 8.39 | COC(=O)NC[C@@H](C)Oc1ncc(-c2cc(NC(=O)c3cccc(C(F)(F)F)c3)cnc2C)cc1N1CCOCC1 [Example 1003, (R)-methyl(2-((2′-methyl-5-morpholino-5′-(3-(trifluoromethyl)benzamido)-[3,3′-bipyridin]-6-yl)oxy)propyl)carbamate] | 
4.60 |  | Cc1ncc(NC(=O)c2cccc(C(F)(F)F)c2)cc1-c1cc(N2CCOCC2)nc(OC2CNC2)n1 [Example 776, N-(5-(2-(azetidin-3-yloxy)-6-morpholinopyrimidin-4-yl)-6-methylpyridin-3-yl)-3-(trifluoromethyl)benzamide] | 
8.54 |  | Cc1ncc(NC(=O)c2cccc(C(F)(F)F)c2)cc1-c1ccc(C#N)c(N2CCOCC2)c1 [Example 684] | 
7.35 |  | Cc1ncc(C(=O)Nc2cccc(C(C)(C)C#N)c2)cc1-c1cc(N2CCOCC2)c(=O)n(C)c1 [Example 444, N-(3-(2-cyanopropan-2-yl)phenyl)-1′,2-dimethyl-5′-morpholino-6′-oxo-1′,6′-dihydro-[3,3′-bipyridine]-5-carboxamide] | 
 | 8.58 | Cc1ncc(NC(=O)c2cncc(C(F)(F)F)c2)cc1-c1cnc(OC(C)C)c(N2CCOCC2)c1 [Example 960, N-(6′-isopropoxy-2-methyl-5′-morpholino-[3,3′-bipyridin]-5-yl)-5-(trifluoromethyl)nicotinamide] | 

Continued, compound first:

Structure (SMILES) | pIC50 [1] | pIC50 [2] | also measured
COc1nnc(-c2cc(NC(=O)c3cnnc(C(C)(C)C#N)c3)ccc2C)cc1N1CCOCC1 [Example 557, 6-(2-cyanopropan-2-yl)-N-(3-(6-methoxy-5-morpholinopyridazin-3-yl)-4-methylphenyl)pyridazine-4-carboxamide] | 8.27 |  | 
Cc1ncc(NC(=O)c2ccnc(C(C)(F)F)c2)cc1-c1cc(N2CCO[C@@H](CO)C2)n(C)c(=O)c1 [Example 529, (R)-2-(1,1-difluoroethyl)-N-(6′-(2-(hydroxymethyl)morpholino)-1′,2-dimethyl-2′-oxo-1′,2′-dihydro-[3,4′-bipyridin]-5-yl)isonicotinamide] | 7.12 |  | 
Cc1ncc(NC(=O)c2ccnc(C(C)(C)F)c2)cc1-c1cnc(F)c(N2CCOCC2)c1 [Example 298, N-(6′-fluoro-2-methyl-5′-morpholino-[3,3′-bipyridin]-5-yl)-2-(2-fluoropropan-2-yl)isonicotinamide] |  |  | pIC50 (Table 2, 3 hours reaction): 8.41
Cc1ccc(NC(=O)c2ccnc(C(C)(C)C#N)c2)cc1-c1cc(OC2CCOCC2)nc(N2CCOCC2)c1 [Example 1152, 2-(2-cyanopropan-2-yl)-N-(4-methyl-3-(2-morpholino-6-((tetrahydro-2H-pyran-4-yl)oxy)pyridin-4-yl)phenyl)isonicotinamide] |  | 8.90 | 
Cc1ccc(NC(=O)c2ccnc(C(F)F)c2)cc1-c1cc(N2CCOCC2)nc(NCCO)c1F [Example 1016, 2-(difluoromethyl)-N-(3-(3-fluoro-2-((2-hydroxyethyl)amino)-6-morpholinopyridin-4-yl)-4-methylphenyl)isonicotinamide] |  | 8.64 | 
Cc1ccc(NC(=O)c2ccnc(S(C)(=O)=O)c2)cc1-c1cc(N2CCOCC2)nc(N(C)C)n1 [Example 759, N-(3-(2-(dimethylamino)-6-morpholinopyrimidin-4-yl)-4-methylphenyl)-2-(methylsulfonyl)isonicotinamide] | 7.94 |  | 
Cc1ccc(NC(=O)c2cnnc(C3(C#N)CC3)c2)cc1-c1cnc(OC2CCOCC2)c(N2CCOCC2)c1 [Example 302, 6-(1-cyanocyclopropyl)-N-(4-methyl-3-(5-morpholino-6-((tetrahydro-2H-pyran-4-yl)oxy)pyridin-3-yl)phenyl)pyridazine-4-carboxamide] |  |  | pIC50 (Table 2, 3 hours reaction): 9.22
CCOc1nnc(-c2cc(NC(=O)c3ccnc(C(C)(C)C#N)c3)cnc2C)cc1N1CCOC[C@H]1C [Example 623, (R)-2-(2-cyanopropan-2-yl)-N-(5-(6-ethoxy-5-(3-methylmorpholino)pyridazin-3-yl)-6-methylpyridin-3-yl)isonicotinamide] | 7.25 |  | 
Cc1ccc(NC(=O)c2ccnc(C3(C#N)CC3)c2)cc1-c1cc(N2CCOCC2)n(C)c(=O)c1 [Example 480, 2-(1-cyanocyclopropyl)-N-(4-methyl-3-(1-methyl-6-morpholino-2-oxo-1,2-dihydropyridin-4-yl)phenyl)isonicotinamide] | 9.22 |  | 
Cc1ccc(NC(=O)c2ccnc(C(C)(C)O)c2)cc1-c1cc(N2CCOCC2)n(C)c(=O)c1 [Example 483, 2-(2-hydroxypropan-2-yl)-N-(4-methyl-3-(1-methyl-6-morpholino-2-oxo-1,2-dihydropyridin-4-yl)phenyl)isonicotinamide] | 8.46 |  | 
Cc1nn(C(C)C)cc1C(=O)Nc1cnc(C)c(-c2cc(N3CCOCC3)c(=O)n(C)c2)c1 [Example 375, N-(1′,2-dimethyl-5′-morpholino-6′-oxo-1′,6′-dihydro-[3,3′-bipyridin]-5-yl)-1-isopropyl-3-methyl-1H-pyrazole-4-carboxamide] |  |  | pIC50 (Table 2, 3 hours reaction): 6.70
Cc1ccc(NC(=O)c2ccnc(S(C)(=O)=O)c2)cc1-c1cc(N2CCOCC2)nc(N2CC(O)C2)c1 [Example 1097, N-(3-(2-(3-hydroxyazetidin-1-yl)-6-morpholinopyridin-4-yl)-4-methylphenyl)-2-(methylsulfonyl)isonicotinamide] |  | 8.48 | 
CCn1cc(C(=O)Nc2cnc(C)c(-c3cc(N4CCOCC4)c(=O)n(C)c3)c2)c(C)n1 [Example 373, N-(1′,2-dimethyl-5′-morpholino-6′-oxo-1′,6′-dihydro-[3,3′-bipyridin]-5-yl)-1-ethyl-3-methyl-1H-pyrazole-4-carboxamide] |  |  | pIC50 (Table 2, 3 hours reaction): 5.96
